Data: patent publication US20060089302A1, “Hsp70-derived peptides and uses thereof in the diagnosis and treatment of autoimmune diseases” (priority 2002, published 2006)
Values joined by “and” are separate entries in the source; they are usually repeats but may differ in a detail not shown here. Identical values can stand only once.

What was measured:
[1] = tested on: peripheral blood mononuclear cells (PBMC) / T-cells; test: T-cell proliferation assay (3H-Thymidine incorporation, stimulation index); assay type: cell-based, human; settings: for T-cell reactivity to hsp70 peptide (epitope mapping): seven Type 1 Diabetes patients (P3, P16, P18, P20, P21, P23, P24), immunogenic when at least 3 out of 7 patients had S.I.≥2; for T-cell reactivity to hsp70 peptide (epitope mapping) / Number of Type 1 Diabetes subjects responding to the peptide: peptide 5-20 μg/ml; for Number of Type 1 Diabetes subjects responding to the peptide: epitope mapping, seven subjects tested (p1: three of these plus two adult patients), S.I.≥2; for T-cell proliferative response, S.I., Mean ± SD: group mean
[2] = tested on: serum IgG anti-hsp60, anti-hsp70, anti-hsp90, anti-tetanus toxoid; test: Determination of auto-antibodies (antibody capture ELISA on antigen-coated plates); assay type: binding, human; settings: for IgG antibodies to the antigen in serum, Mean ± SD: group mean
Description: All of the serum samples that were collected were stored in aliquotes at −20° C. and thawed before each assay. Total human IgG anti-hsp60, anti-hsp70, and anti-hsp90, as well as anti-tetanus toxoid proteins were detected by the antibody capture-type enzyme immunoassay ELISA [Maggio, M. T. (1981) Enzyme Immunoassay, CRC Press, Boca Raton, USA]. 96-well micro titer plates (Dynatech) were coated with the protein according to the antibody being tested. Serum samples were distributed at dilutions in the range of 1:50 to 1:70 into the pre-coated wells for the protein detection assay. Thus, any IgG anti-hsp60, anti-hsp70, anti-hsp90, or anti-tetanus toxoid present should be bound by the immobilized peptide or protein. After washing off unbound material, a mouse monoclonal anti-human IgG antibody conjugated to alkaline phosphatase (AP) was added to the wells. After an additional washing step to remove any unbound anti-enzyme reagent, the AP substrate p-nitrophenyl phosphate (pNPP) solution was added. The intensity of the color developed was measured using an Anthos htll ELISA reader at λ=405 nm. The amount of antibody detected was represented as Units of Optical Density at λ=405 nm. Patients and control subjects were assayed in the same experiment.
The InStat 2.01 computer program was used for the statistical analysis. The results obtained from the samples of healthy individuals were used to determine the cutoff for each assay, which was established as the mean plus two standard deviations (SDs). […] The results were presented as the percentage of positive from the total tested group.
Levels of IgG antibodies to hsp60, hsp70, and hsp90 were measured in the sera of 20 Type 1 Diabetes children (P1-P5, P7-P21; Table 3A) and two control groups, 10 normoglycemic children (Table 3B) and 15 healthy adult blood donors (Table 3C). The level of the antibodies was scored as positive when it was greater than the cut-off level (cut-off levels were established based on the mean value of antibody levels from the normoglycemic children plus two standard deviations).

[3] = healthy subjects / healthy blood donors
[4] = Type 1 diabetes children (n=20), cut-off = mean of normoglycemic children plus two SD
[5] = healthy adult blood donors (n=15)
[6] = pediatric control serum donors / healthy children (n=10)

## KANKITITNDKGRLSKEEIE (listed as Homo sapiens) [p34, human hsp70 residues 496-515]
[1]
  T-cell reactivity to hsp70 peptide (epitope mapping): triggered a T-cell response

## KEEIERMVQEAEKYKAEDEV (listed as Homo sapiens) [p35, human hsp70 residues 511-530]
[1]
  Number of Type 1 Diabetes subjects responding to the peptide: five
  T-cell reactivity to hsp70 peptide (epitope mapping): triggered a T-cell response

## KRTLSSSTQASLEIDSLFEG (listed as Homo sapiens) [p19, human hsp70 residues 271-290]
[1]
  T-cell reactivity to hsp70 peptide (epitope mapping): triggered a T-cell response

## LLLLDVAPLSLGLETAGGVM (listed as Homo sapiens) [p27, human hsp70 residues 391-410]
[1]
  Number of Type 1 Diabetes subjects responding to the peptide: six out of seven
  T-cell reactivity to hsp70 peptide (epitope mapping): triggered a T-cell response

## MAKAAAVGIDLGTTYSCVGV (listed as Homo sapiens) [p1, human hsp70 residues 1-20]
[1]
  Number of Type 1 Diabetes subjects responding to the peptide: five
  T-cell reactivity to hsp70 peptide (epitope mapping): triggered a T-cell response

## PTKQTQIFTTYSDNQPGVLI (listed as Homo sapiens) [p29, human hsp70 residues 421-440]
[1]
  T-cell reactivity to hsp70 peptide (epitope mapping): triggered a T-cell response

## THLGGEDFDNRLVNHFVEEF (listed as Homo sapiens) [p16, human hsp70 residues 225-244]
[1]
  T-cell reactivity to hsp70 peptide (epitope mapping): triggered a T-cell response

## TIDDGIFEVKATAGDTHLGG (listed as Homo sapiens) [p15, human hsp70 residues 210-229]
[1]
  T-cell reactivity to hsp70 peptide (epitope mapping): triggered a T-cell response

## Tetanus Toxoid: recall antigen Tetanus Toxoid (Connaught Lab. Inc, Penn., USA) [reference compound]
[1]; Healthy subjects
  T-cell proliferative response, S.I., Mean ± SD: 8.01 ± 9.3
[1]; Healthy subjects, listed as tetanus toxoid
  T-cell proliferative response, S.I., Mean ± SD: 9.4±6.4
[1]; Type 1 Diabetes adult patients
  T-cell proliferative response, S.I., Mean ± SD: 14.3 ± 22.86
[1]; Type 1 Diabetes children
  T-cell proliferative response, S.I., Mean ± SD: 17.2±16.1
[1]; Type 1 Diabetes children, listed as T.T.
  T-cell proliferative response, S.I., Mean ± SD: 17.2 ± 15.9
[1]; Type 2 Diabetes patients
  T-cell proliferative response, S.I., Mean ± SD: 4.4
[1]; Type 2 Diabetes patients, listed as tetanus toxoid
  T-cell proliferative response, S.I., Mean ± SD: 4.4±2.9
[2]; Type 1 Diabetes and control groups
  Serum antibodies to control antigen, in words: comparably high

## hsp70: recombinant human hsp70 (StressGen, Canada), intact heat-shock protein
[1]; Healthy subjects
  T-cell proliferative response, S.I., Mean ± SD: 1.4±0.6 and 1.45±0.6 and 1.44 ± 0.6
[1]; Type 1 Diabetes adult patients
  T-cell proliferative response, S.I., Mean ± SD: 2.6+0.84 and 2.6 ± 0.84
[1]; Type 1 Diabetes adult patients, within 12 weeks from diagnosis
  Responding subjects (S.I.≥2): about 86%
[1]; Type 1 Diabetes children
  Responding subjects (S.I.≥2): 85%
[1]; Type 2 Diabetes patients
  Responding subjects (S.I.≥2): 27%
  T-cell proliferative response, S.I., Mean ± SD: 1.8±1.3 and 1.8 ± 1.26
[1]; [3]
  Responding subjects (S.I.≥2): 14% and 13%
[2]; Type 1 Diabetes children
  IgG antibodies to the antigen in serum, Mean ± SD: 0.5 ± 0.41 Units of Optical Density at λ=405 nm
[2]; [4]
  Positive (antibody level above cut-off): 30%
[2]; Type 1 diabetes children (n=20), cut-off = mean of normoglycemic children plus two SD, listed as Hsp70
  Positive (antibody level above cut-off): 30%
[2]; [5]
  Positive (antibody level above cut-off): 6%
[2]; healthy adult blood donors (n=15), listed as Hsp70
  Positive (antibody level above cut-off): 6.6%
[2]; healthy adult blood donors
  IgG antibodies to the antigen in serum, Mean ± SD: 0.43 ± 0.1 Units of Optical Density at λ=405 nm
[2]; [6]
  Positive (antibody level above cut-off): none
[2]; pediatric control serum donors / healthy children (n=10), listed as Hsp70
  Positive (antibody level above cut-off): 0%
[2]; pediatric control serum donors
  IgG antibodies to the antigen in serum, Mean ± SD: 0.35 ± 0.09 Units of Optical Density at λ=405 nm

## hsp90: recombinant human hsp90 (StressGen, Canada), heat-shock protein
[1]; Healthy subjects
  T-cell proliferative response, S.I., Mean ± SD: 1.52±0.7
[1]; Type 1 Diabetes adult patients (Table 1D), tested after more than 12 weeks
  T-cell response, in words: No response
[1]; Type 1 Diabetes adult patients
  T-cell proliferative response, S.I., Mean ± SD: 1.4 ± 0.3
[1]; Type 1 Diabetes children
  Responding subjects (S.I.≥2): 21%
  T-cell proliferative response, S.I., Mean ± SD: 1.7±1.2 and 1.7 ± 1.1
[1]; Type 2 Diabetes patients
  Responding subjects (S.I.≥2): 9%
  T-cell proliferative response, S.I., Mean ± SD: 1.6±1.4 and 1.6 ± 1.38
[1]; [3]
  Responding subjects (S.I.≥2): 25%
[2]; Type 1 Diabetes children
  IgG antibodies to the antigen in serum, Mean ± SD: 0.47 ± 0.13 Units of Optical Density at λ=405 nm
[2]; [4]
  Positive (antibody level above cut-off): 15%
[2]; Type 1 diabetes children (n=20), cut-off = mean of normoglycemic children plus two SD, listed as Hsp90
  Positive (antibody level above cut-off): 15%
[2]; [5]
  Positive (antibody level above cut-off): 6%
[2]; healthy adult blood donors (n=15), listed as Hsp90
  Positive (antibody level above cut-off): 6.6%
[2]; healthy adult blood donors
  IgG antibodies to the antigen in serum, Mean ± SD: 0.46 ± 0.1 Units of Optical Density at λ=405 nm
[2]; [6]
  Positive (antibody level above cut-off): none
[2]; pediatric control serum donors / healthy children (n=10), listed as Hsp90
  Positive (antibody level above cut-off): 0%
[2]; pediatric control serum donors
  IgG antibodies to the antigen in serum, Mean ± SD: 0.43 ± 0.1 Units of Optical Density at λ=405 nm
